Laboratory results from US12637440B2, “Amide derivative useful as diacylglycerol acyltransferase 2 inhibitor, and use thereof” (LG CHEM, LTD., priority 2019, dated 2026).

molecular target: T1, Recombinant human DGAT2 protein (Homo sapiens, UniProt Q96PD7); experiment: Measurement of inhibitory effect against DGAT2 enzyme activity (SPA, Phospholipid FlashPlate, [14C]-TG production); assay type: biochemical; conditions: concentration inhibiting [14C]-labeled triacyl glycerol (TG) production by 50%; 2 μg DGAT2-membrane protein from Sf-21 cells, 37° C.
T1 construct: FLAG (DYKDDDDK); (N); made in house; host or cells: Sf-21 insect cells (BacPAK baculovirus system); used as a membrane preparation
T1 sequence (Q96PD7 1-388): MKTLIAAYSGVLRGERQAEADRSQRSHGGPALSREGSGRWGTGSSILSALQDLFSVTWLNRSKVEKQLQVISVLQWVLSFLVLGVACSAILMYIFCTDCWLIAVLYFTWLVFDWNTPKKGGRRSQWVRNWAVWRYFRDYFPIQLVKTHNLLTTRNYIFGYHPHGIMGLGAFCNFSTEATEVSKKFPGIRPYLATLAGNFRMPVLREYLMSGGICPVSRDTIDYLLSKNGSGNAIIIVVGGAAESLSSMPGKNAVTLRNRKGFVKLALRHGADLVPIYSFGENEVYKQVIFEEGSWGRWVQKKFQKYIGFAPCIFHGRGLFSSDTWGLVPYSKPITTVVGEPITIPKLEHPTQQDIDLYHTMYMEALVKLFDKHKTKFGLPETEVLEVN
Procedure: Experimental Example: Measurement of Inhibitory Effect Against DGAT2 Enzyme Activity
In order to prepare the pBacPAK9-DGAT2, which is DGAT2 expression vector, the human DGAT2 gene amplified by polymerase chain reaction (PCR) was cloned into the EcoR1 and Xho1 sites of the pBacPAK9 (clonctech) vector. The nucleotide sequence of the primers used in PCR was the forward primer 5′ […] and the reverse primer 5′ […]. The composition of the reaction solution was to contain 50 ng of cDNA clone (OriGene), 200 μM of dATP, dCTP, dTTP, dGTP, 200 nM of each primer, 1 unit of Tag DNA Polymerase (Toyobo), 1×PCR buffer, and the final volume was adjusted to 20 μl. The reaction conditions were denatured at 95° C. for 5 minutes, followed by 30 times of 94° C. for 20 seconds, 60° C. for 20 seconds, and 72° C. for 90 seconds, followed by further reaction at 72° C. for 7 minutes.
Recombinant human DGAT2 protein was expressed in Sf-21 cells, which are insect cells, by using the BacPack baculovirus expression system (Clontech). The brief manufacturing process is as follows. First, the pBacPAK9-DGAT2 expression vector was transfected with BacPAK6 virus DNA (Bsu36I digest) into sf21 cells using Bacfectin to prepare a recombinant DGAT2 expressing baculovirus. The thus prepared baculovirus was infected with Sf-21 cells at 10 MOI (multiplicity of infection), and after 72 hours, infected insect cells were collected and membrane proteins were isolated. For membrane protein separation, the cell pellet was dissolved in a sucrose solution containing 250 mM sucrose, 10 mM Tris (pH 7.4), and 1 mM ethylenediamine-tetraacetic acid (EDTA), and then homogenized by using a dounce homogenizer, and the supernatant was taken by centrifuging at 600×g for 15 minutes, and centrifuged at 100,000×g for 1 hour to discard the supernatant, and the remaining pellet was resuspended in 20 mM HEPES buffer (pH 7.4). The prepared DGAT2 overexpressing membrane protein was dispensed in 100 μl and stored at −80° C. until use. Protein concentration was quantified by using the BCA Protein Assay Kit (Thermo Scientific).
In vitro DGAT2 analysis was performed using a Phospholipid Flash Plate (PerkinElmer) based on the principle of SPA (Scintillation Proximity Assay). First, DGAT2 inhibition compounds serially diluted 5 times from 3 nM to 10 μM (final concentration, 1% DMSO) were mixed in a buffer solution containing 2 μg DGAT2-membrane protein and 20 mM HEPES, 20 mM MgCl2, 1 mg/mL BSA, 50 μM 1,2 sn-oleoyl glycerol (Sigma), put in a 96-well flash plate (FlashPlate) and reacted at 37° C. for 20 minutes, and then 1 μM [14C] ole oil CoA (PerkinElmer, NEC651050UC) was added to be a final volume of 100 μL and further reacted at 37° C. for 15 minutes. After the enzymatic reaction was completed, 100 μL of isopropanol was added, the plate was sealed with a film, and the plate was shaken slowly in a plate shaker. The next day, the amplified scintillation signal (cpm) in Topcounter (Packard) was measured to measure the degree of production of [14C]-labeled triacyl glycerol (TG) as a reaction product. The measured value when the compound was not treated was used as a positive control, and the measured value of the compound treated group was calculated as a relative % to measure the inhibition effect of the compound on TG production.

SMILES | IC50 [nM]
CCOc1ccccc1O[C@@H]1CCCN(c2cncc(NC(=O)c3cc(F)c(N4CCC(CC(=O)O)CC4)c(F)c3)n2)C1 [Example 58] | 7500
CCOc1ccccc1O[C@@H]1CCCN(c2cncc(NC(=O)C3CCN(c4ccc(C(=O)O)cc4)CC3)n2)C1 [Example 59, (R)-4-(4-((6-(3-(2-ethoxyphenoxy)piperidin-1-yl)pyrazin-2-yl)carbamoyl)piperidin-1-yl)benzoic acid] | 1000
CCOc1ccccc1O[C@@H]1CCCN(c2cncc(NC(=O)CCc3ccc(OC(C)(C)C(=O)O)cc3)n2)C1 [Example 60, (R)-2-(4-(3-((6-(3-(2-ethoxyphenoxy)piperidin-1-yl)pyrazin-2-yl)amino)-3-oxopropyl)phenoxy)-2-methylpropanoic acid] | 420
CCOc1ccccc1O[C@@H]1CCCN(c2cncc(NC(=O)CCc3ccc(CCC(=O)O)cc3)n2)C1 [Example 61, (R)-3-(4-(3-((6-(3-(2-ethoxyphenoxy)piperidin-1-yl)pyrazin-2-yl)amino)-3-oxopropyl)phenyl)propanoic acid] | 150
CCOc1ccccc1O[C@@H]1CCCN(c2cncc(NC(=O)c3ccc(Oc4ccc(C(=O)O)cc4)cc3)n2)C1 [Example 62, (R)-4-(4-((6-(3-(2-ethoxyphenoxy)piperidin-1-yl)pyrazin-2-yl)carbamoyl)phenoxy)benzoic acid] | 2100
CCOc1ccccc1O[C@@H]1CCCN(c2cncc(NC(=O)Cc3ccc(C[C@@H](C)C(=O)O)cc3)n2)C1 [Example 63] | 140
CCOc1ccccc1O[C@@H]1CCCN(c2cncc(NC(=O)Cc3ccc(C[C@H](C)C(=O)O)cc3)n2)C1 [Example 64] | 120
CCOc1ccccc1O[C@@H]1CCCN(c2cccc(NC(=O)Cc3ccc(CC(=O)O)cc3)n2)C1 [Example 66, (R)-2-(4-(2-((6-(3-(2-ethoxyphenoxy)piperidin-1-yl)pyridin-2-yl)amino)-2-oxoethyl)phenyl)acetic acid] | 2700
CCOc1ccccc1O[C@@H]1CCCN(c2cncc(NC(=O)Nc3ccc(CC(=O)O)cc3)n2)C1 [Example 67, (R)-2-(4-(3-(6-(3-(2-ethoxyphenoxy)piperidin-1-yl)pyrazin-2-yl)ureido)phenyl)acetic acid] | 6100
CCOc1ccccc1O[C@@H]1CCCN(c2cccc(NC(=O)Cc3ccc(C(C)(C)C(=O)O)cc3)n2)C1 [Example 68, (R)-2-(4-(2-((6-(3-(2-ethoxyphenoxy)piperidin-1-yl)pyridin-2-yl)amino)-2-oxoethyl)phenyl)-2-methylpropanoic acid] | 630
CCOc1ccccc1O[C@@H]1CCCN(c2cncc(NC(=O)Cc3ccc(C(C)(C)C(=O)O)cc3)n2)C1 [Example 69, (R)-2-(4-(2-((6-(3-(2-ethoxyphenoxy)piperidin-1-yl)pyrazin-2-yl)amino)-2-oxoethyl)phenyl)-2-methylpropanoic acid] | 970
CCOc1ccccc1O[C@@H]1CCCN(c2cccc(NC(=O)CCc3ccc(C(C)(C)C(=O)O)cc3)n2)C1 [Example 70, (R)-2-(4-(3-((6-(3-(2-ethoxyphenoxy)piperidin-1-yl)pyridin-2-yl)amino)-3-oxopropyl)phenyl)-2-methylpropanoic acid] | 350
CCOc1ccccc1O[C@@H]1CCCN(c2cccc(NC(=O)Cc3ccc(CC(C)(C)C(=O)O)cc3)n2)C1 [Example 71] | 250
CCOc1ccccc1O[C@@H]1CCCN(c2cc(C(F)(F)F)nc(NC(=O)Cc3ccc(CC(C)(C)C(=O)O)cc3)n2)C1 [Example 72] | 1800
CCOc1ccccc1O[C@@H]1CCCN(c2cncc(NC(=O)C(C)(C)c3ccc(CCC(=O)O)cc3)n2)C1 [Example 73, (R)-3-(4-(1-((6-(3-(2-ethoxyphenoxy)piperidin-1-yl)pyrazin-2-yl)amino)-2-methyl-1-oxopropan-2-yl)phenyl)propanoic acid] | 310
C=C(CNc1ccc(CCC(=O)O)cc1)C(=O)Nc1cncc(N2CCC[C@@H](Oc3ccccc3OCC)C2)n1 [Example 74, (R)-3-(4-((2-((6-(3-(2-ethoxyphenoxy)piperidin-1-yl)pyrazin-2-yl)carbamoyl)allyl)amino)phenyl)propanoic acid] | 1300
CCOc1ccccc1O[C@@H]1CCCN(c2cncc(NC(=O)C3CCN(c4ncc(C(=O)O)cn4)CC3)n2)C1 [Example 75, (R)-2-(4-((6-(3-(2-ethoxyphenoxy)piperidin-1-yl)pyrazin-2-yl)carbamoyl)piperidin-1-yl)pyrimidine-5-carboxylic acid] | 1200
CCOc1cccnc1O[C@@H]1CCCN(c2cncc(NC(=O)[C@@H]3CCCN(c4cccc(CC(C)(C)C(=O)O)c4)C3)n2)C1 [Example 76] | 130
CCOc1ccccc1O[C@@H]1CCCN(c2ccnc(NC(=O)C(C)(C)c3ccc(CC(C)(C)C(=O)O)cc3)n2)C1 [Example 77, (R)-3-(4-(1-((4-(3-(2-ethoxyphenoxy)piperidin-1-yl)pyrimidin-2-yl)amino)-2-methyl-1-oxopropan-2-yl)phenyl)-2,2-dimethylpropanoic acid] | 410
CCOc1cccnc1O[C@@H]1CCCN(c2ccnc(NC(=O)C(C)(C)c3ccc(CC(C)(C)C(=O)O)cc3)n2)C1 [Example 78, (R)-3-(4-(1-((4-(3-((3-ethoxypyridin-2-yl)oxy)piperidin-1-yl)pyrimidin-2-yl)amino)-2-methyl-1-oxopropan-2-yl)phenyl)-2,2-dimethylpropanoic acid] | 2500
CCOc1ccccc1O[C@@H]1CCCN(c2cncc(NC(=O)C3CCN(c4ccc(CC(=O)O)cc4)CC3)n2)C1 [Example 79, (R)-2-(4-(4-((6-(3-(2-ethoxyphenoxy)piperidin-1-yl)pyrazin-2-yl)carbamoyl)piperidin-1-yl)phenyl)acetic acid] | 930
CCOc1ccccc1O[C@@H]1CCCN(c2cncc(NC(=O)C3CCN(c4ccc(C(C)(C)C(=O)O)cn4)CC3)n2)C1 [Example 81, (R)-2-(6-(4-((6-(3-(2-ethoxyphenoxy)piperidin-1-yl)pyrazin-2-yl)carbamoyl)piperidin-1-yl)pyridin-3-yl)-2-methylpropanoic acid] | 740
CCOc1ccccc1O[C@@H]1CCCN(c2cncc(NC(=O)C3CCN(c4nnn(CC(=O)O)n4)CC3)n2)C1 [Example 82, (R)-2-(5-(4-((6-(3-(2-ethoxyphenoxy)piperidin-1-yl)pyrazin-2-yl)carbamoyl)piperidin-1-yl)-2H-tetrazol-2-yl)acetic acid] | 6800
CCOc1ccccc1O[C@@H]1CCCN(c2cncc(NC(=O)C3CCN(C(=O)CCC(=O)O)CC3)n2)C1 [Example 83, (R)-4-(4-((6-(3-(2-ethoxyphenoxy)piperidin-1-yl)pyrazin-2-yl)carbamoyl)piperidin-1-yl)-4-oxobutanoic acid] | > 10000
CCOc1ccccc1O[C@@H]1CCCN(c2cncc(NC(=O)C3CCN(CC(=O)O)CC3)n2)C1 [Example 84, (R)-2-(4-((6-(3-(2-ethoxyphenoxy)piperidin-1-yl)pyrazin-2-yl)carbamoyl)piperidin-1-yl)acetic acid] | > 10000
